Source: patent US4684664A, “Derivatives of β-(4-isocyano-1,2,3,4-diepoxycyclopentyl) acrylic acid” (Kureha Kagaku Kogyo Kabushiki Kaisha, priority 1984, dated 1987)
Values after ≈ are worked out from the molar mass of the structure shown.

Columns and labels:
Type in all cases: cell-based
[1] = test system: Salmonella paratyphi-A 1015; test: Antibacterial activity, agar-dilution MIC, organism No. 10; conditions: Salmonella enterica, PARATYPHI, read-out: Minimum Inhibitory Concentration
Procedure, shortened: (§1)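 MICs were determined by agar dilution on bouillon-agar medium. The value is the minimum concentration of specimen inhibiting growth, expressed as μg/ml of culture medium.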

Proteus vulgaris HX-19 = test: Antibacterial activity, agar-dilution MIC, organism No. 21; conditions: Proteus vulgaris, HX19; Organism No. 21, bouillon-agar; read-out: Minimum Inhibitory Concentration
Procedure, shortened: as §1

[2] = test system: Staphylococcus aureus FDA 209PJc-1; test: Antibacterial activity, agar-dilution MIC, organism No. 1; conditions: Staphylococcus aureus, FDA209PJC1; Organism No. 1, bouillon-agar; read-out: Minimum Inhibitory Concentration
Procedure, shortened: as §1

[3] = test system: Bacillus subtilis ATCC 6633; test: Antibacterial activity, agar-dilution MIC, organism No. 14; conditions: Bacillus subtilis, ATCC6633; Organism No. 14, bouillon-agar; read-out: Minimum Inhibitory Concentration
Procedure, shortened: as §1

[4] = test system: Candida albicans IAM 4905; test: Antifungal activity, agar-dilution MIC, organism No. 29; conditions: Candida albicans, IAM4905; Organism No. 29, bouillon-agar; read-out: Minimum Inhibitory Concentration
Procedure, shortened: as §1

[5] = test system: Salmonella enteritidis G 14; test: Antibacterial activity, agar-dilution MIC, organism No. 12; conditions: Salmonella enterica, ENTERITIDIS; Organism No. 12, bouillon-agar; read-out: Minimum Inhibitory Concentration
Procedure, shortened: as §1

[6] = test system: Escherichia coli NIHJ-JC-2; test: Antibacterial activity, agar-dilution MIC, organism No. 5; conditions: Escherichia coli, NIHJJC2; Organism No. 5, bouillon-agar; read-out: Minimum Inhibitory Concentration
Procedure, shortened: as §1

[7] = test system: Serratia marcescens IAM 1184; test: Antibacterial activity, agar-dilution MIC, organism No. 13; conditions: Serratia marcescens, IAM1184; Organism No. 13, bouillon-agar; read-out: Minimum Inhibitory Concentration
Procedure, shortened: as §1

[8] = test system: Streptococcus pyogenes IFO 3340; test: Antibacterial activity, agar-dilution MIC, organism No. 26; conditions: Streptococcus pyogenes, IFO3340; Organism No. 26, bouillon-agar; read-out: Minimum Inhibitory Concentration
Procedure, shortened: as §1

Salmonella typhi 901 = test: Antibacterial activity, agar-dilution MIC, organism No. 9; conditions: Salmonella enterica, TYPHI, read-out: Minimum Inhibitory Concentration
Procedure, shortened: as §1

Enterobacter cloacae 963 = test: Antibacterial activity, agar-dilution MIC, organism No. 24; conditions: Enterobacter cloacae, 963; Organism No. 24, bouillon-agar; read-out: Minimum Inhibitory Concentration
Procedure, shortened: as §1

[9] = test system: Proteus morganii IFO 3848; test: Antibacterial activity, agar-dilution MIC, organism No. 18; conditions: Morganella morganii, IFO3848; Organism No. 18, bouillon-agar; read-out: Minimum Inhibitory Concentration
Procedure, shortened: as §1

[10] = test system: Enterobacter aerogenes ATCC 13048; test: Antibacterial activity, agar-dilution MIC, organism No. 23; conditions: Klebsiella aerogenes, ATCC13048; Organism No. 23, bouillon-agar; read-out: Minimum Inhibitory Concentration
Procedure, shortened: as §1

[11] = test system: Aspergillus niger IFO 6342; test: Antifungal activity, agar-dilution MIC, organism No. 30; conditions: Aspergillus niger, IFO6342; Organism No. 30, bouillon-agar; read-out: Minimum Inhibitory Concentration
Procedure, shortened: as §1

[12] = test system: Micrococcus luteus ATCC 9341; test: Antibacterial activity, agar-dilution MIC, organism No. 25; conditions: Micrococcus luteus, ATCC9341; Organism No. 25, bouillon-agar; read-out: Minimum Inhibitory Concentration
Procedure, shortened: as §1

[13] = test system: Mycoplasma pneumoniae IID817; test: Antimycoplasmal activity, MIC by phenol red colour change, organism No. 28; conditions: Mycoplasma, IID817; Organism No. 28, PPLO broth + 1% glucose, 37° C.; read-out: Minimum Inhibitory Concentration (MIC)
Description: Mycoplasma pneumoniae IID817 was used as the test microorganism in a culture medium prepared by adding 1% of glucose to "PPLO broth (manufactured by Difco Co.) liquid culture medium" at 37° C. with phenol red as an indicator, thereby culturing the test microorganism.

[14] = test system: Pseudomonas aeruginosa NCTC 10490; test: Antibacterial activity, agar-dilution MIC, organism No. 16; conditions: Pseudomonas aeruginosa, NCTC10490; Organism No. 16, bouillon-agar; read-out: Minimum Inhibitory Concentration
Procedure, shortened: as §1

[15] = test system: Proteus mirabilis IFO 3849; test: Antibacterial activity, agar-dilution MIC, organism No. 19; conditions: Proteus mirabilis, IFO3849; Organism No. 19, bouillon-agar; read-out: Minimum Inhibitory Concentration
Procedure, shortened: as §1

[16] = test system: Staphylococcus aureus MS 353; test: Antibacterial activity, agar-dilution MIC, organism No. 3; conditions: Staphylococcus aureus, MS353; Organism No. 3, bouillon-agar; read-out: Minimum Inhibitory Concentration
Procedure, shortened: as §1

[17] = test system: Escherichia coli K12 C600 IAM 1264; test: Antibacterial activity, agar-dilution MIC, organism No. 6; conditions: Escherichia coli, IAM1264; Organism No. 6, bouillon-agar; read-out: Minimum Inhibitory Concentration
Procedure, shortened: as §1

[18] = test system: Proteus rettgeri IFO 3850; test: Antibacterial activity, agar-dilution MIC, organism No. 22; conditions: Providencia rettgeri, IFO3850; Organism No. 22, bouillon-agar; read-out: Minimum Inhibitory Concentration
Procedure, shortened: as §1

[19] = test system: Pseudomonas aeruginosa PAO 1; test: Antibacterial activity, agar-dilution MIC, organism No. 17; conditions: Pseudomonas aeruginosa, PAO1; Organism No. 17, bouillon-agar; read-out: Minimum Inhibitory Concentration
Procedure, shortened: as §1

[20] = test system: Pseudomonas aeruginosa IFO 3445; test: Antibacterial activity, agar-dilution MIC, organism No. 15; conditions: Pseudomonas aeruginosa, IFO3445; Organism No. 15, bouillon-agar; read-out: Minimum Inhibitory Concentration
Procedure, shortened: as §1

Proteus vulgaris OX-19 = test: Antibacterial activity, agar-dilution MIC, organism No. 20; conditions: Proteus vulgaris, OX19; Organism No. 20, bouillon-agar; read-out: Minimum Inhibitory Concentration
Procedure, shortened: as §1

[21] = test system: Staphylococcus aureus Terajima; test: Antibacterial activity, agar-dilution MIC, organism No. 2; conditions: Staphylococcus aureus; Organism No. 2, bouillon-agar; read-out: Minimum Inhibitory Concentration
Procedure, shortened: as §1

[22] = test system: Salmonella shottmuelleri 8006; test: Antibacterial activity, agar-dilution MIC, organism No. 11; conditions: Salmonella, 8006; Organism No. 11, bouillon-agar; read-out: Minimum Inhibitory Concentration
Procedure, shortened: as §1

[23] = test system: Streptococcus faecium IFO 3826; test: Antibacterial activity, agar-dilution MIC, organism No. 27; conditions: Enterococcus faecium, IFO3826; Organism No. 27, bouillon-agar; read-out: Minimum Inhibitory Concentration
Procedure, shortened: as §1

[24] = test system: Streptococcus pyogenes Cook; test: Antibacterial activity, agar-dilution MIC, organism No. 4; conditions: Streptococcus pyogenes; Organism No. 4, bouillon-agar; read-out: Minimum Inhibitory Concentration
Procedure, shortened: as §1

[25] = test system: Salmonella typhimurium IID 971; test: Antibacterial activity, agar-dilution MIC, organism No. 8; conditions: Salmonella enterica; Organism No. 8, bouillon-agar; read-out: Minimum Inhibitory Concentration
Procedure, shortened: as §1

[26] = test system: Klebsiella pneumoniae PCI-602; test: Antibacterial activity, agar-dilution MIC, organism No. 7; conditions: Klebsiella pneumoniae, PCI602; Organism No. 7, bouillon-agar; read-out: Minimum Inhibitory Concentration
Procedure, shortened: as §1

Structure (SMILES)	MIC [1]	MIC (Proteus vulgaris HX-19)	MIC [2]	MIC [3]	MIC [4]	MIC [5]	MIC [6]	MIC [7]	MIC [8]	MIC (Salmonella typhi 901)	MIC (Enterobacter cloacae 963)	MIC [9]	MIC [10]	MIC [11]	MIC [12]	MIC [13]	MIC [14]	MIC [15]	MIC [16]	MIC [17]	other results
[C-]#[N+]C12CC3(/C=C/C(=O)Nc4ccc(C(C)=O)cc4)OC3C1O2 (stereo not drawn) [compound 80]	3.13 µg/mL (≈ 10.1 µM)	1.56 µg/mL (≈ 5.03 µM)	0.39 µg/mL (≈ 1.26 µM)	6.25 µg/mL (≈ 20.1 µM)	0.39 µg/mL (≈ 1.26 µM)	12.5 µg/mL (≈ 40.3 µM)	> 200 µg/mL	> 200 µg/mL	3.13 µg/mL (≈ 10.1 µM)	12.5 µg/mL (≈ 40.3 µM)	> 200 µg/mL	6.25 µg/mL (≈ 20.1 µM)	> 200 µg/mL	3.13 µg/mL (≈ 10.1 µM)	> 200 µg/mL	< 0.2 µg/mL	> 200 µg/mL	> 200 µg/mL	0.78 µg/mL (≈ 2.51 µM)	> 200 µg/mL	MIC [18]: > 200 µg/mL; MIC [19]: > 200 µg/mL; MIC [20]: > 200 µg/mL; MIC (Proteus vulgaris OX-19): 1.56 µg/mL (≈ 5.03 µM); MIC [21]: 1.56 µg/mL (≈ 5.03 µM); MIC [22]: 3.13 µg/mL (≈ 10.1 µM); MIC [23]: 1.56 µg/mL (≈ 5.03 µM); MIC [24]: 6.25 µg/mL (≈ 20.1 µM); MIC [25]: 100 µg/mL (≈ 322 µM); MIC [26]: 1.56 µg/mL (≈ 5.03 µM)
[C-]#[N+]C12CC3(/C=C/C(=O)Nc4ccc5c(c4)OCO5)OC3C1O2 (stereo not drawn) [compound 64]	0.39 µg/mL (≈ 1.25 µM)	0.05 µg/mL (≈ 0.16 µM)	0.2 µg/mL (≈ 0.64 µM)	6.25 µg/mL (≈ 20 µM)	0.39 µg/mL (≈ 1.25 µM)	3.13 µg/mL (≈ 10 µM)	25 µg/mL (≈ 80.1 µM)	50 µg/mL (≈ 160 µM)	1.56 µg/mL (≈ 5 µM)	3.13 µg/mL (≈ 10 µM)	> 200 µg/mL	6.25 µg/mL (≈ 20 µM)	> 200 µg/mL	6.25 µg/mL (≈ 20 µM)	0.05 µg/mL (≈ 0.16 µM)	< 0.2 µg/mL	> 200 µg/mL	> 200 µg/mL	0.2 µg/mL (≈ 0.64 µM)	12.5 µg/mL (≈ 40 µM)	MIC [18]: 3.13 µg/mL (≈ 10 µM); MIC [19]: > 200 µg/mL; MIC [20]: > 200 µg/mL; MIC (Proteus vulgaris OX-19): 0.2 µg/mL (≈ 0.64 µM); MIC [21]: 0.78 µg/mL (≈ 2.5 µM); MIC [22]: 0.39 µg/mL (≈ 1.25 µM); MIC [23]: 12.5 µg/mL (≈ 40 µM); MIC [24]: 12.5 µg/mL (≈ 40 µM); MIC [25]: 6.25 µg/mL (≈ 20 µM); MIC [26]: 0.2 µg/mL (≈ 0.64 µM)
[C-]#[N+]C12CC3(/C=C/C(=O)OCc4ccc([N+](=O)[O-])cc4)OC3C1O2 (stereo not drawn) [compound 15]	25 µg/mL (≈ 76.2 µM)	< 0.1 µg/mL	25 µg/mL (≈ 76.2 µM)	50 µg/mL (≈ 152 µM)	6.25 µg/mL (≈ 19 µM)	50 µg/mL (≈ 152 µM)	50 µg/mL (≈ 152 µM)	> 100 µg/mL	50 µg/mL (≈ 152 µM)	25 µg/mL (≈ 76.2 µM)	> 100 µg/mL	25 µg/mL (≈ 76.2 µM)	> 100 µg/mL	6.25 µg/mL (≈ 19 µM)	< 0.1 µg/mL	12 µg/mL	> 100 µg/mL	100 µg/mL (≈ 305 µM)	25 µg/mL (≈ 76.2 µM)	50 µg/mL (≈ 152 µM)	MIC [18]: > 100 µg/mL; MIC [19]: > 100 µg/mL; MIC [20]: > 100 µg/mL; MIC (Proteus vulgaris OX-19): 6.25 µg/mL (≈ 19 µM); MIC [21]: 50 µg/mL (≈ 152 µM); MIC [22]: 12.5 µg/mL (≈ 38.1 µM); MIC [23]: 25 µg/mL (≈ 76.2 µM); MIC [24]: 50 µg/mL (≈ 152 µM); MIC [25]: 50 µg/mL (≈ 152 µM); MIC [26]: 12.5 µg/mL (≈ 38.1 µM)
